Results as given in PubChem BioAssay (NCI).
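In this assay, cells in 96-well plates receive the compound at five concentrations for 48 hours. Endpoints are linearly interpolated between the surrounding concentrations. GI50 is the concentration that inhibits growth by half. TGI: concentration producing complete growth inhibition.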

Key:
Experiment in all cases: NCI-60 cell line screen, 48 h
[1] = system: UO-31 renal
[2] = system: KM12 colon
[3] = system: SNB-19 CNS
[4] = system: K-562 leukemia
[5] = system: MALME-3M melanoma
[6] = system: U251 CNS
[7] = system: CAKI-1 renal
[8] = system: HOP-62 NSCLC
[9] = system: SN12C renal
[10] = system: RXF 393 renal

| Structure (SMILES) | TGI [1] | TGI [2] | TGI [3] | TGI [4] | TGI [5] | TGI [6] | TGI [7] | TGI [8] | TGI [9] | GI50 [1] | GI50 [2] | GI50 [4] | GI50 [8] | GI50 [5] | GI50 [9] | GI50 [6] | GI50 [7] | GI50 [10] | TGI [10] | GI50 [3] |
| --- | --- | --- | --- | --- | --- | --- | --- | --- | --- | --- | --- | --- | --- | --- | --- | --- | --- | --- | --- | --- |
| O=C1c2ccccc2C2(O)NC(=S)N(c3ccccc3)C12O (centres undefined) | > 100 µM | > 100 µM | > 100 µM | > 100 µM | > 100 µM | > 100 µM | > 100 µM |  |  |  |  |  |  |  |  |  |  |  |  |  |
| Cc1cccc(Cl)c1NC(=O)/C=C/c1ccccc1 |  | > 100 µM | > 100 µM | > 100 µM | > 100 µM | > 100 µM | > 100 µM | > 100 µM | > 100 µM |  |  |  |  |  |  |  |  |  |  |  |
| CCN=c1cc2sc3cc(NCC)c(C)cc3nc-2cc1C | 16.4 µM | 11 µM |  | 16.3 µM | 3.88 µM | 6.71 µM | 4.6 µM | 7.34 µM | 12.5 µM | 2.16 µM | 0.654 µM | 0.358 µM | 2.09 µM | 0.782 µM | 1.5 µM | 0.646 µM | 1.34 µM | 3.22 µM | 18 µM |  |
| c1ccc2c(c1)-c1ccccc1C2N1CC2CCC(CC2)C1 | 94.6 µM | 39.9 µM | 92.4 µM | 36.6 µM | 27.6 µM | 30.9 µM | > 100 µM | 62 µM | 55.6 µM |  |  |  |  |  |  |  |  |  | 33.7 µM |  |
| CCC[CH2][Sn]([CH2]CCC)([O]C(=O)C(N)CSC)[O]C(=O)C(N)CSC (centres undefined) | 27.4 µM | 29.4 µM | 24.6 µM | 7.81 µM | 48.7 µM | 25.1 µM | 17.4 µM |  | 23.4 µM | 14.3 µM | 13.3 µM | 0.846 µM |  | 7.19 µM | 8.82 µM | 11.3 µM | 5 µM | 6.83 µM | 18.8 µM | 12.1 µM |
| CN1CCCCCC(=N\O)/C(=N/O)CCCCC1 | > 100 µM | > 100 µM | > 100 µM | > 100 µM | > 100 µM | > 100 µM | > 100 µM | > 100 µM | > 100 µM |  |  |  |  |  |  |  |  |  | > 100 µM |  |
| O=C(Nc1cc[c]([Sb](=[O])([OH])[OH])cc1)c1ccccc1 | > 100 µM | > 100 µM | > 100 µM | > 100 µM | > 100 µM | > 100 µM | > 100 µM | > 100 µM | > 100 µM | > 100 µM | > 100 µM | > 100 µM | > 100 µM | > 100 µM | > 100 µM | > 100 µM | > 100 µM | > 100 µM | > 100 µM | > 100 µM |
| COc1c(Cl)c2c(c(OC)c1OC)-c1ccc(SC)c(=O)cc1[C@@H](NC(=O)OCC(F)(F)F)CC2 | > 61.9 µM | 4.26 µM | > 100 µM | > 100 µM | 42.6 µM | > 39.2 µM | > 56.8 µM | > 100 µM | > 100 µM |  | < 0.01 µM | < 0.01 µM | < 0.01 µM | < 0.0104 µM | < 0.01 µM | < 0.01 µM | < 0.0227 µM |  |  | < 0.01 µM |
| NC(=S)N/N=C(\C(=O)Nc1cccc([N+](=O)[O-])c1)c1nc2ccc([N+](=O)[O-])cc2[nH]c1=O | > 100 µM | > 100 µM | > 100 µM | > 100 µM | > 100 µM | > 100 µM |  | > 100 µM |  |  |  |  |  |  |  |  |  |  | > 100 µM |  |
| O=c1ccnc2c1ccc1[nH]cccc12 | > 100 µM | > 100 µM | > 100 µM | > 100 µM | > 100 µM | > 100 µM |  | > 100 µM | > 100 µM |  |  |  |  |  |  |  |  |  | > 100 µM |  |
| CSc1nc(NC(=O)O)c(N(C(C)=O)C(=O)O)c(=O)n1C | > 100 µM | > 100 µM | > 100 µM | > 100 µM | > 100 µM | > 100 µM | > 100 µM |  | > 100 µM |  |  |  |  |  |  |  |  |  | > 100 µM |  |
| COc1ccc(-c2ccc(/C=N/n3c(COc4ccc(Cl)cc4Cl)nn(CN4CCN(C)CC4)c3=S)o2)c([N+](=O)[O-])c1 | > 100 µM | 36.5 µM | > 100 µM | > 100 µM |  | 42.8 µM | 37.3 µM | 79.5 µM | 41.5 µM | 26.7 µM | 15.1 µM | 22.2 µM | 29.6 µM |  | 17.8 µM | 16.9 µM | 16.8 µM | 6.86 µM | 32.9 µM | 35.2 µM |
| COc1cc(C(=O)C/C(CCC(=O)Nc2ccc(Cl)cc2C)=N/NC(=O)C(N)=O)ccc1O | > 100 µM | > 100 µM | > 100 µM | > 100 µM | > 100 µM | > 100 µM | > 100 µM | > 100 µM | > 100 µM |  |  |  |  |  |  |  |  |  |  |  |
| O=C1c2cc([N+](=O)[O-])ccc2-c2cccc(F)c21 | > 100 µM | > 100 µM | > 100 µM | > 100 µM |  | > 100 µM | > 100 µM | > 100 µM | > 100 µM |  |  |  |  |  |  |  |  |  | > 100 µM |  |
| COC(=O)C12CC3CC(C1)CC(C(=O)OC)(C3)C2 | > 100 µM | > 100 µM | > 100 µM |  |  | > 100 µM | > 100 µM | > 100 µM | > 100 µM |  |  |  |  |  |  |  |  |  |  |  |
| CN(C)CC/C(=N\Nc1ccccc1)c1ccccc1 | 22.8 µM | 18.3 µM | > 100 µM | 7.54 µM | 25.6 µM | > 100 µM | 11.2 µM | 31 µM |  |  |  |  |  |  |  |  |  |  | > 100 µM |  |
| C=CCN(CC=C)C(=O)c1cc(C)nc2c1c(=O)n(-c1ccccc1)c(=O)n2CC(O)CN1CCN(c2ncccn2)CC1 (centres undefined) | > 100 µM | > 100 µM | > 100 µM | > 100 µM | > 100 µM | > 100 µM | > 100 µM | > 100 µM | > 100 µM | > 100 µM | > 100 µM | > 100 µM | 21.1 µM | > 100 µM | > 100 µM | > 100 µM | > 100 µM |  |  | > 100 µM |
